# Assay results from patent US20050182122A1, “Method of treating abnormal cell growth using indolinone compounds” (priority 2003, published 2005).
# “And” between values parts separate entries of the source, which are not always exact repeats. Identical values can stand only once.
# Legend:
# [1] = Example 2: AML patients, toxicities; assay type: in vivo, human
# Experimental: (§1) Constitutively activating mutations of the receptor FLT3 are present in approximately 30% of patients with AML and correlate with poor prognosis. […] Two dose levels (50 and 75 mg) and 2 schedules (Group A: 4 weeks of treatment followed by a 14 day rest period; and Group B: 4 weeks of treatment followed by a 7 day rest period) were evaluated in 3 cohorts of patients. Flt3 genotyping for ITD and D835 mutations was performed to enable retrospective stratification. Correlative laboratory studies to assess inhibition of target phosphorylation, and modulation of signaling pathways regulating apoptosis and proliferation were performed by Western blot and immunohistochemistry analyses and FL expression and IHC were conducted.
# [2] = Example 1: metastatic renal cell carcinoma patients, adverse events; assay type: in vivo, human
# Source text: (§2) Eligibility included measurable disease, ECOG performance status of 0 or 1, failure of one prior cytokine-based therapy due to disease progression or toxicity, and adequate cardiac function as defined by normal ejection fraction on MUGA or ECHO. Patients were excluded if they had significant cardiac events within the past 12 months or received more than one prior cytokine regimen.
# [3] = tested on: metastatic renal cell carcinoma (RCC); test: Example 1: metastatic renal cell carcinoma patients, best response by RECIST; assay type: in vivo, human
# Source text: as §2
# primary or secondary AML = test: Example 2: AML patients, clinical activity by WHO criteria; assay type: in vivo, human; set-up: key to Best Response: NE: not evaluated; PR: partial response; SD: stable disease; PD: Progressive Disease; conditions: for Best Response: AML, one line per patient
# Experimental: as §1
# [4] = Example 3: solid tumor patients, dose limiting toxicities; assay type: in vivo, human
# Source text: (§3) The patients were characterized as follows: 15 male, 13 female; age range 33-78 years; median age 55 years; median PS 0; WHO PS, 0 (22 patients), 1 (3 patients), 2 (3 patients). The number of pretreatment regimens ranged from 0 to 9, with a median of 2. The tumors types (number of patients) were: renal cell carcinoma (4); neuroendocrine tumors (4); colorectal cancer (3); non-small cell lung cancer (2); mesotheliomas (2); uterine carcinoma (2); breast cancer (2); pancreas (2); angiosarcoma (2); esophagus (1); undifferentiated carcinoma of nasopharynx (1); parotid adenocarcinoma (1); melanoma (1); gastrointestinal stromal tumor (1). […] All other trials were dosed with flat doses (i.e., mg). All dosage amounts are free-base equivalents. A plus symbol (+) following the number of cycles indicates the patient was still on study at the date the data were summarized.
# solid tumors = test: Example 3: solid tumor patients, antitumor activity; assay type: in vivo, human
# Source text: as §3
# blood/plasma half life = assay type: in vivo
# Experimental: Administration of the compound of formula 1, or its active metabolite 2, in an effective dosing regimen, must take into account the long blood/plasma half lives of these two compounds, approximately 40 and 80 hours, respectively, as well as their safety profiles. Thus, there is a need for safe and therapeutically effective dosing regimens for administering the compounds of formula 1 and 2 to a mammal, including a human, for treating abnormal cell growth, such as cancer.
# FLT3-ITD xenograft tumor = FLT3-ITD xenograft tumor model; assay type: in vivo; conditions: pre-clinical experiments
# FLT3 = test: Example 2: AML patients, FLT3 phosphorylation and expression (Western blot, immunohistochemistry); assay type: in vivo, human
# Experimental: as §1
# [5] = tested on: bone marrow engraftment model; test: bone marrow engraftment model; assay type: in vivo; conditions: pre-clinical experiments
# [6] = 15 AML patients, 50 or 75 mg daily
# [7] = 15 AML patients, 50 or 75 mg daily, 4 weeks treatment, 14 or 7 day rest, mainly grade 1-2
# [8] = preliminary safety data N=44, 50 mg daily 4 weeks/2-week rest, mostly grades 1 and 2
# [9] = preliminary safety data N=44, without signs of pancreatitis
# [10] = 63 metastatic RCC patients, 50 mg daily orally 4 weeks, 2-week rest
# [11] = all dosing schedules, 23 evaluable
compound,measurement,setting,value
"CCN(CC)CCNC(=O)c1c(C)[nH]c(/C=C2\C(=O)Nc3ccc(F)cc32)c1C [5-(5-fluoro-2-oxo-1,2-dihydroindol-(3Z)-ylidenemethyl)-2,4-dimethyl-1H-pyrrole-3-carboxylic acid (2-diethylaminoethyl)-amide]","Grade 3 drug related fatigue, patients",[1]; [6],20%
same,toxicity: diarrhea,[1]; [7],13%
same,toxicity: fatigue,[1]; [7],27%
same,toxicity: nausea,[1]; [7],33%
same,toxicity: vomiting,[1]; [7],13%
same,"dose limiting toxicity, fatigue grade 4 (number)",[1]; at 75 mg,One
same,taken off study for toxicity,[2]; 63 metastatic RCC patients,8 patients
same,Grade 3 event: anemia,[2]; preliminary safety data N=44,5%
same,Grade 3 event: leukocytopenia,[2]; preliminary safety data N=44,5%
same,Grade 3 event: lymphopenia,[2]; preliminary safety data N=44,32%
same,Grade 3 event: neutropenia,[2]; preliminary safety data N=44,9%
same,grade 3 thrombocytopenia,[2]; preliminary safety data N=44,no patients
same,"adverse event constipation, frequency",[2]; [8],34%
same,"adverse event diarrhea, frequency",[2]; [8],46%
same,"adverse event dyspepsia, frequency",[2]; [8],30%
same,"adverse event fatigue/asthenia, frequency",[2]; [8],67%
same,"adverse event nausea, frequency",[2]; [8],50%
same,"adverse event stomatitis, frequency",[2]; [8],43%
same,Grade 3 event: elevated amylase,[2]; [9],9%
same,Grade 3 event: elevated lipase,[2]; [9],23%
same,decreases in left ventricular ejection fraction >20% without clinical symptoms,[2]; taken off the study,Two
same,taken off study for PD,[3]; 63 metastatic RCC patients,Twelve
same,"Best response by RECIST: confirmed partial, patients",[3]; [10],16%
same,"Best response by RECIST: progression, patients",[3]; [10],27%
same,"Best response by RECIST: stable, patients",[3]; [10],41%
same,"reduction of unidimensional measurement of at least 30%, awaiting confirmation of response status, patients",[3]; [10],10%
same,partial responders remaining progression free,"[3]; of 10 patients with partial response, median follow-up of 4 months from start of therapy",9
same,partial responders who progressed,"[3]; of 10 patients with partial response, progressed at 5 months",1 patient
same,evidence of clinical activity of short duration by WHO criteria,primary or secondary AML; [6],7 patients
same,"morphologic response (less than 5% blasts in bone marrow, absence of blasts in peripheral blood), number of patients",primary or secondary AML; [6],1
same,"partial responses (reduction of blasts by more than 50% in blood and bone marrow), number of patients",primary or secondary AML; [6],6
same,Best Response,"primary or secondary AML; 50 mg daily, schedule 4/1 weeks treatment/rest",SD (3×) and PR (2×)
same,Best Response,"primary or secondary AML; 50 mg daily, schedule 4/2 weeks treatment/rest",PD (3×) and PR (3×) and Morph. R
same,Best Response,"primary or secondary AML; 75 mg daily, schedule 4/2 weeks treatment/rest",PR
same,"rebound of blasts during the treatment-free (rest) period, patients",primary or secondary AML; of the 7 patients with clinical activity,2
same,responding patients with mutated FLT3 (ITD or D835),primary or secondary AML; of the responding patients,Three
same,patients with dose limiting toxicities at cycle 1,[4]; 50 mg daily patients,2 of 9
same,dose limiting toxicity grade 3 edema,"[4]; 50 mg daily patients, cycle 1",1 patient
same,dose limiting toxicity grade 4 thrombocytopenia,"[4]; 50 mg daily patients, cycle 1",1 patient
same,patients with dose limiting toxicities at cycle 1,[4]; 75 mg daily patients,5 of 11
same,dose limiting toxicity grade 3 asthenia,"[4]; 75 mg daily patients, cycle 1",3 patients
same,dose limiting toxicity grade 3 hypertension,"[4]; 75 mg daily patients, cycle 1",1 patient
same,dose limiting toxicity grade 5 tumor necrosis,"[4]; 75 mg daily patients, cycle 1",1 patient
same,patients with dose limiting toxicities at cycle 1,[4]; 100 mg daily patients,2 of 3
same,dose limiting toxicity grade 3 asthenia,"[4]; 100 mg daily patients, cycle 1",1 patient
same,dose limiting toxicity grade 3 hypertension,"[4]; 100 mg daily patients, cycle 1",1 patient
same,course of asthenia,[4]; cycle 1,progressively from grade 1 at week 1 to grade 3-4 at week 4
same,main dose-limiting toxicity,"[4]; doses greater than or equal to 50 mg, appeared during cycle 1",Asthenia
same,rest period required for reversal of grade 3 asthenia,"[4]; human, in vivo",2-4 week
same,dose limiting toxicity at cycle 1,[4]; the 150 mg daily patient,grade 3 asthenia
same,Tumor Progression,"solid tumors; 50 mg Q2D, 3 patients",3
same,Tumor Response (#),"solid tumors; 50 mg Q2D, 3 patients",0
same,Tumor Stabilization (#),"solid tumors; 50 mg Q2D, 3 patients",0
same,"Tumor Stabilization, Time",solid tumors; 50 mg QD,8 months
same,Tumor Progression,"solid tumors; 50 mg QD, 6 patients",5
same,Tumor Response (#),"solid tumors; 50 mg QD, 6 patients",0
same,Tumor Stabilization (#),"solid tumors; 50 mg QD, 6 patients",1
same,Tumor Progression,"solid tumors; 75 mg QD, 9 patients",0
same,Tumor Response (#),"solid tumors; 75 mg QD, 9 patients",3
same,Tumor Stabilization (#),"solid tumors; 75 mg QD, 9 patients",2
same,"Tumor Stabilization, Time","solid tumors; 75 mg QD, one value per patient",4 months and 5 months
same,Tumor Progression,"solid tumors; 100 mg Q2D, 1 patient",0
same,Tumor Response (#),"solid tumors; 100 mg Q2D, 1 patient",1
same,Tumor Stabilization (#),"solid tumors; 100 mg Q2D, 1 patient",0
same,"Tumor Stabilization, Time",solid tumors; 100 mg QD,6 months
same,Tumor Progression,"solid tumors; 100 mg QD, 3 patients",0
same,Tumor Response (#),"solid tumors; 100 mg QD, 3 patients",2
same,Tumor Stabilization (#),"solid tumors; 100 mg QD, 3 patients",1
same,"Tumor Stabilization, Time",solid tumors; 150 mg QD,3 months
same,Tumor Progression,"solid tumors; 150 mg QD, 1 patient",0
same,Tumor Response (#),"solid tumors; 150 mg QD, 1 patient",0
same,Tumor Stabilization (#),"solid tumors; 150 mg QD, 1 patient",1
same,"Tumor Progression, totals",solid tumors; [11],8/23
same,"Tumor Response (#), totals",solid tumors; [11],6/23
same,"Tumor Stabilization (#), totals",solid tumors; [11],5/23
"CCNCCNC(=O)c1c(C)[nH]c(/C=C2\C(=O)Nc3ccc(F)cc32)c1C [Compound 2, 5-(5-fluoro-2-oxo-1,2-dihydroindol-(3Z)-ylidenemethyl)-2,4-dimethyl-1H-pyrrole-3-carboxylic acid (2-ethylaminoethyl)-amide]",half-life,blood/plasma half life,~3.33 days
"CCN(CC)CCNC(=O)c1c(C)[nH]c(/C=C2\C(=O)Nc3ccc(F)cc32)c1C [Compound 1, 5-(5-fluoro-2-oxo-1,2-dihydroindol-(3Z)-ylidenemethyl)-2,4-dimethyl-1H-pyrrole-3-carboxylic acid (2-diethylaminoethyl)-amide]",tolerability in advanced AML population,[1]; 50 mg dose,tolerable
same,efficacy in FLT3-ITD xenograft tumor model,FLT3-ITD xenograft tumor,dose-dependent efficacy
same,half-life,blood/plasma half life,~1.67 days
same,duration of partial response,"primary or secondary AML; one patient with FLT3 ITD mutation, Group B (50 mg daily, 4 weeks treatment/7 day rest)",4 month
same,target inhibition,FLT3; 50 mg dose,consistently observed
same,time to decreased FLT3 protein expression,"FLT3; patient with FLT3 ITD mutation, Group B, consistent with decreasing blast counts",≤ 8 days
same,FLT3 phosphorylation after administration,"FLT3; patient with FLT3 ITD mutation, Group B, similar in 2 other FLT3 mutant patients",inhibition of FLT3 phosphorylation
same,efficacy in bone marrow engraftment model,[5],dose-dependent efficacy
